From a compilation of properties of binary mixtures (doi:10.1016/j.jct.2023.107038)

Assay: xn = mol fraction of the nth substance listed
Conditions: 96.7 kPa

OCC(F)(F)F + CC(=O)[O-].CC[n+]1ccn(C)c1
viscosity [mPa·s]
Conditions	293.15 K	298.15 K	303.15 K	308.15 K	313.15 K	318.15 K	323.15 K	328.15 K	333.15 K
x1 = 0.048	157	–	–	67	53	42.2	34.3	28.4	23.7
x1 = 0.103	138	104	79	61	48.5	39.2	31.6	26.5	–
x1 = 0.204	–	75	59	–	37.7	30.6	25.6	21.4	18.2
x1 = 0.298	69	54	42.9	34.7	28.5	23.7	20	–	14.5
x1 = 0.402	46.1	–	–	24.2	21.1	17.6	–	12.9	11.3
x1 = 0.603	–	14.6	12.4	11	9.5	–	7.4	6.5	–
x1 = 0.801	6.2	5.5	4.85	4.32	–	3.54	–	2.94	2.69
x1 = 1	2.01	1.8	1.59	1.41	–	1.1	1.01	0.93	–

CC(=O)[O-].CC[n+]1ccn(C)c1 + OCC(F)(F)F
x2 = 0
Conditions	viscosity [mPa·s]
293.15 K	181
298.15 K	135
303.15 K	100
308.15 K	76
323.15 K	38.5
328.15 K	31.4
333.15 K	26

CC[n+]1ccn(C)c1.O=S(=O)([N-]S(=O)(=O)C(F)(F)F)C(F)(F)F + OCC(F)(F)F
x2 = 0
Conditions	viscosity [mPa·s]
293.15 K	39.2
298.15 K	32.9
303.15 K	27.8
318.15 K	17.6
323.15 K	15.4
328.15 K	13.6
333.15 K	12.2

OCC(F)(F)F + CC[n+]1ccn(C)c1.O=S(=O)([N-]S(=O)(=O)C(F)(F)F)C(F)(F)F
viscosity [mPa·s]
Conditions	293.15 K	298.15 K	303.15 K	308.15 K	313.15 K	318.15 K	323.15 K	328.15 K	333.15 K
x1 = 0.051	–	30.2	25.7	22	–	16.5	14.5	12.7	11.4
x1 = 0.099	32.5	27.4	23.4	20	17.6	15.2	–	11.8	10.7
x1 = 0.204	25.7	23.1	19.6	–	14.3	13.1	11.5	10.1	9.3
x1 = 0.303	–	17.7	15.3	13.5	11.8	10.3	9.4	8.4	7.6
x1 = 0.396	–	13.5	11.7	10.3	–	8.2	7.3	6.8	–
x1 = 0.599	8.3	7.3	–	5.8	5.2	–	4.3	3.92	3.59
x1 = 0.799	–	3.53	3.16	2.96	2.68	2.47	2.27	–	1.95
x1 = 1	2.01	1.8	1.59	–	1.26	1.1	1.01	0.93	–
